Results reported in patent US7807675B2, “Hyaluronic acid-methotrexate conjugate” (priority 2004, dated 2010).

Columns and labels:
[1] = tested on: human synovial cells derived from RA patients (HFLS-RA); assay: Suppressive effect on proliferation of human synovial cells (HFLS-RA) stimulated by TNF-α; format: cell-based; settings: TNF-α 10 ng/mL, 5 days, [3H]-deoxyuridine uptake, concentration calculated as MTX
Source text: (§1) Effects of the HA-MTX conjugates of the invention on cell proliferation induced by TNF-α stimulation were examined using human synovial cells (HFLS). The main lesion in rheumatoid arthritis (RA) occurs in the synovial tissue, and one of the features of RA is known to be that synovial cells abnormally proliferate to form a granulation tissue (pannus) and thereby destroy the cartilage and bone of the joint. Secondary synovitis is also observed in osteoarthritis (OA). […] Thus, a compound inhibiting the proliferation of synovial cells stimulated by an inflammatory cytokine, TNF-α, becomes a drug for suppressing the progression of the pathologic conditions of, or for treating RA and OA.
(§2) The sterile aqueous solutions of the HA-MTX conjugates in Example 3 were used as test substances. As HFLS, human synovial cells derived from RA patients (HFLS-RA, CA404-05, Lot No.: 1493) and human synovial cells derived from OA patients (HFLS-OA, CA400-05, Lot No.: 1442) were purchased from Cell Applications Ins for use.
(§3) HFLS was seeded at 5,000 cells/well on a 96-well plate (Falcon) and cultured for 3 hours in Iscove's modified Dulbecco's medium (IMDM) containing 5% FBS and 1× Antibiotic-Antimycotic (GIBOC). After cellular attachment, TNF-α (final concentration: 10 ng/mL) and each HA-MTX conjugate at each concentration was added, followed by cultivation for 5 days. Two days before the end of culture, was added 37 kBq/well of [^3H]-deoxyuridine in the cells (MORAVEK), followed by determining the uptake quantity (radioactivity) of [^3H]-deoxyuridine using a scintillation counter. Cells were recovered by unsticking them with 0.05% trypsin-0.2% EDTA.
(§4) Radioactivity determined in each of the experiments with each test substance was calculated as a relative value (% of control), using, as control, radioactivity in the group of cells cultured without adding any test substance. Since the concentration of a free carboxyl group is 2.49×10^−3 mol/L (1 g/401/L; 401 is the molecular weight of N-acetylglucosamine+glucuronic acid) for each 1 mg/mL of hyaluronic acid, the MTX concentration in each HA-MTX was calculated by multiplying the value by the conjugation rate of MTX. (For 1 mg/mL of HA-MTX conjugate with a conjugation rate of MTX of 1%, the concentration of MTX was 2.49×10^−5 mol/L) The value obtained was used to calculate the activity of inhibiting cell proliferation (IC50 value) by a 4-parameter logistic method (analysis software: GraphPad Prism 3.02 and 4.02).

[2] = tested on: mBSA-induced monoarthritis model; assay: Suppressive effect on knee joint swelling in mBSA-induced monoarthritis model; format: in vivo, rat; settings: for AUC (% of control) (mean ± SEM): AUC of knee joint swelling, control = HA-treated group, LEW/Crj rat, 50 μL into right knee joint 7 and 1 day before and 7 days after inducing arthritis
Protocol: An in vivo synovitis-suppressing effect of each HA-MTX conjugate of the invention was assessed on the basis of a suppressive effect on knee joint swelling in a methylated bovine serum albumin (mBSA)-induced monoarthritis model of rat. Since the mBSA-induced arthritis model employed in this experimental example is widely used as an antigen-induced arthritis model, and known to develop synovitis (Sven E. Andersson, et al., The Journal of Rheumatology (1998) 25: 9, 1772-7), the in vivo knee joint swelling-suppressing effect observed in this model conceivably represents a synovitis-suppressing effect. The compounds of the invention suppressing synovitis in vivo are useful as therapeutic drugs for joint diseases accompanied by synovitis (RA, OA, and the like).
The animal used was the LEW/Crj rat (6-week old male, from Charles River Laboratories Japan, Inc.). Into the flank of the rat was subcutaneously injected 0.5 mL of an emulsion prepared from a 2 mg/mL mBSA (Calbiochem) aqueous solution and an equal amount of Freund's complete adjuvant (Difco) 21 and 14 days before inducing arthritis. The arthritis was induced by administering 50 μL of a 2 mg/mL mBSA aqueous solution into the right knee joint. The left knee joint was untreated, and served as control in each individual. Each test substance (sterile aqueous solution) and the control drug hyaluronic acid were each administered into the right knee joint in an amount of 50 μL 7 and 1 day before and 7 days after inducing arthritis.
The determination of knee joint swelling involved measuring the widths of both knee joints with calipers to define the left/right difference (right knee diameter−left knee diameter) as a knee joint swelling. The width of each knee joint was measured at a frequency of twice a week from immediately before inducing arthritis to two weeks later to calculate AUC (an abbreviation for Area Under the Curve; here, it means an area under a curve with time for the joint swelling) from the transition thereof with time. At each measurement, the mean and standard deviation of AUC were calculated to perform an unpaired t-test between each test substance-treated group and the HA-treated group, and significant difference was judged to be present if the probability level is less than 5%. Statistical analysis used SAS version 6.12 or 8.02 (SAS Institute Japan). In addition, the AUC of each test substance was calculated, using that in the HA-treated group as a control, as a relative value (% of control) therefor.
To verify the usefulness of the HA-MTX conjugate of the invention, the suppressive effect on joint swelling was compared, in accordance with the method of Example 3, among: 1) a group treated with the HA-MTX conjugate (sterile aqueous solution) prepared in Example 3-10; 2) a group treated with a solution containing MTX of an amount equal to that of MTX contained in the HA-MTX conjugate; and 3) a group of treated with a mixture (HA+MTX) of MTX and hyaluronic acid (HA) of amounts equal to those contained in the conjugate. HA and vehicle (2 mM phosphate buffer, 0.9% NaCl) was used as controls. In this Experimental Example, Suvenyl (SVE, Chugai Pharmaceutical Co., Ltd.) was used as HA. The time course of knee joint swelling in this test is shown in FIG. 1, and the AUC thereof in FIG. 2.

[3] = tested on: human synovial cells derived from OA patients (HFLS-OA); assay: Suppressive effect on proliferation of human synovial cells (HFLS-OA) stimulated by TNF-α; format: cell-based; settings: TNF-α 10 ng/mL, 5 days, [3H]-deoxyuridine uptake, concentration calculated as MTX
Source text: as §1, §2, §3, §4

Molecule	IC50 [1] [µM]	AUC (% of control) (mean ± SEM) [2]	IC50 [3] [µM]	alleviating effect on synovitis ([2]; Experimental Example 4, arthritis model, amounts equal to those in the conjugate of Example 3-10)	suppressive effect on the joint swelling ([2]; Experimental Example 4, compared to MTX alone or the mixture of MTX and HA in equal amounts, FIGS. 1 and 2)
MTX-α-PhePhe-NHC10H20O3NHCO—O—[HA] [Example 3-2]	0.46				
MTX-α-PhePhe-NHC10H20O3NHCO—O—[HA] [Example 3-3]	0.096	59.7 ± 5.4 % of control			
MTX-α-PhePhe-NHC10H20O3NHCO—O—[HA] [Example 3-12]		49.2 ± 1.2 % of control	2		
MTX-α-PheGly-NHC10H20O3NHCO—O—[HA] [Example 3-15]		50.1 ± 4.9 % of control	0.45		
MTX-α-PhePhe-NHC10H20O3NHCO—O—[HA] [Example 3-4]		53.6 ± 5.4 % of control			
CN(Cc1cnc2nc(N)nc(N)c2n1)c1ccc(C(=O)N[C@@H](CCC(=O)O)C(=O)O)cc1 [MTX alone, methotrexate]	0.11		0.31	neither MTX alone nor the mixture of HA and MTX had a sufficient alleviating effect on synovitis	
MTX-α-Ile-NHC10H20O3NHCO—O—[HA] [Example 3-16]		65.5 ± 4.4 % of control	0.23		
MTX-α-PhePhe-NHC10H20O3NHCO—O—[HA] [Example 3-11]		67.1 ± 8.0 % of control	33		
MTX-α-PhePhe-NHC10H20O3NHCO—O—[HA] [Example 3-9]		48.4 ± 2.9 % of control	0.18		
MTX-α-PhePhe-NHC10H20O3NHCO—O—[HA] [Example 3-10]		42.3 ± 4.8 % of control	0.077		markedly strong suppressive effect on the joint swelling in the arthritis model compared to that of MTX alone or the mixture of MTX and HA
MTX-α-PhePhe-NHC10H20O3NHCO—O—[HA] [Example 3-13]		42.0 ± 4.5 % of control	0.29		
MTX-α-PhePhe-NHC10H20O3NHCO—O—[HA] [Example 3-6]		69.7 ± 7.2 % of control	1.4		
MTX-α-PhePhe-NHC10H20O3NHCO—O—[HA] [Example 3-7]		47.7 ± 4.3 % of control	0.41		
MTX-α-PhePhe-NHC10H20O3NHCO—O—[HA] [Example 3-8]			0.14		
MTX-α-PhePhe-NHC10H20O3NHCO—O—[HA] [Example 3-14]			9.7		
MTX-α-PhePhe-NHC10H20O3NHCO—O—[HA] [Example 3-1]	1.2				
MTX-α-PhePhe-NHC10H20O3NHCO—O—[HA] [Example 3-5]		46.6 ± 4.0 % of control			
